{"source": "patent US12043652B2", "about": "“Engineered extracellular receptor constructs and uses thereof” (TRUSTEES OF BOSTON UNIVERSITY, priority 2020, dated 2024)", "format_in_all_cases": "cell-based", "key": {"[1]": {"system": "BCL-xL-BH3(G22)-Gal4-VP64 sensor", "assay": "BCL-xL-BH3(G22)-Gal4-VP64 sensor: ICD driven H2B-mCherry reporter expression", "method": "FIG. 3 Activity of BCL-xL-BH3(G22)-Gal4-VP64 upon presence of BCL-xL inhibitors. BCL-xL serves as a ligand binding domain and BH3(G22) serves as an intramolecular peptide. […] H2B mCherry expression is visualized via microscopy. A fluorescent transfection marker is also shown to verify the presence of cells as a smaller corresponding image. Images were taken 48 hours after transfection and drug addition. Scale bar 50 μm.\n(§1) Upon addition of inducer and either gamma secretase inhibitor, H2B-mCherry signal is ablated. Images are taken 24 hours after transfection and drug addition. A fluorescent transfection marker is shown as a smaller corresponding image. […] Scale bar 50 μm.\nThe inventors next applied this methodology to a completely different LBD and peptide pair, BCL-xL and the BH3(G22) peptide, while keeping the ICD the same."}, "γ-secretase": {"system": "γ-secretase", "assay": "Gamma secretase dependence of two sensors (H2B-mCherry reporter with inducer plus gamma secretase inhibitor)", "details": "dNS3-(EDVVCC) and BCL-xL-BH3(G22) sensors, inducer grazoprevir 3 μM or ABT-737 3 μM, DAPT 5 μM, Compound E 1 μM, 24 hours", "method": "FIG. 4 Gamma secretase dependence of two distinct sensors. dNS3-(EDVVCC (SEQ ID NO: 57))-TMD-Gal4-VP64 and BCL-xL-BH3(G22)-TMD-Gal4-VP64 sensors were tested for gamma secretase dependence via the addition of gamma secretase inhibitors DAPT and Compound E (Cpd E). […] Upon addition of inducer and either gamma secretase inhibitor, H2B-mCherry signal is ablated. Images are taken 24 hours after transfection and drug addition. A fluorescent transfection marker is shown as a smaller corresponding image. Drug concentrations are as follows: NS3 inducer, grazoprevir 3 μM; BCL-xL inducer, ABT-737 3 μM; DAPT 5 μM; Compound E 1 μM. Scale bar 50 μm.\nTo probe into the mechanism of activation for the antiviral drug sensors and ABT-737 sensor, the inventors next inhibited γ-secretase with selective inhibitors, DAPT and compound E. Upon inhibition with either of these compounds, ICD driven activation of H2B-mCherry was inhibited (FIG. 4). Inhibition also occurred despite the presence of each associated sensor inducer, indicating γ-secretase plays a crucial role in MIMOsensor activation and is required for ICD release."}, "[2]": {"target": "T1, catalytically inactive NS3 protease (NS3^S139A, dNS3) sensor (Hepatitis C virus genotype 1a, UniProt P27958, S1165A)", "T1 construct": "transmembrane domain with γ-secretase cleavage site (TMD) (internal); Gal4-VP64 intracellular domain (C); expressed in transfected cells", "T1 sequence (P27958 1027-1208 S1165A)": "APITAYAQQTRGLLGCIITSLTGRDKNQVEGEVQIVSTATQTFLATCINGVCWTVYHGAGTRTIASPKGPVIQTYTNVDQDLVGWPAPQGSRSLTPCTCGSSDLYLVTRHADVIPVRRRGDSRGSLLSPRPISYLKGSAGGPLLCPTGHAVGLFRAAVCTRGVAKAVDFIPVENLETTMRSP", "details": "drug grazoprevir; histograms of H2B-mCherry, flow cytometry, 48 hours post-drug addition", "method": "FIGS. 2A-2B. (FIG. 2A) Schematic of antiviral drug sensor which is designed to sense Hepatitis C Virus NS3 inhibitors. (FIG. 2B) Two sensors with varying sensitivity to antiviral drug based on the affinity of their intramolecular peptide. Activity of the sensor is shown as histograms of intracellular domain driven H2B-mCherry expression in clonal cell lines, measured by flow cytometry, 48 hours post-drug addition. […] Red arrows are drawn to highlight differences in sensitivity to ligand. Drug is grazoprevir or delivery vehicle control, DMSO.\nas §1\nFor proof of concept, the ICD chosen was a synthetic transcription factor, Gal4-VP64, which activates UAS promoter driven H2B-mCherry gene expression. […] The substitution of the high affinity peptide for low affinity peptide appears to increase the sensitivity of the sensor, consistent with the theory of competitive displacement kinetics."}}, "note": "Entries after “also recorded” stand apart in the source; their conditions may differ."}
{"compound": "CN(C)CC[C@H](CSc1ccccc1)Nc1ccc(S(=O)(=O)NC(=O)c2ccc(N3CCN(Cc4ccccc4-c4ccc(Cl)cc4)CC3)cc2)cc1[N+](=O)[O-]", "note": "[ABT-737]", "values": [{"measurement": "ICD driven H2B-mCherry expression", "setting": "[1]; BCL-xL-BH3(G22)-TMD-Gal4-VP64 sensor, ABT-737 3 μM, images 24 hours after transfection and drug addition", "value": "activates ICD driven H2B-mCherry expression"}, {"measurement": "activation of H2B-mCherry (sensor response to drug)", "setting": "[1]; microscopy, 48 hours after transfection and drug addition", "value": "concentration dependent activation"}]}
{"compound": "C[C@H](NC(=O)Cc1cc(F)cc(F)c1)C(=O)N[C@H]1N=C(c2ccccc2)c2ccccc2N(C)C1=O", "note": "[Compound E]", "values": [{"measurement": "ICD driven activation of H2B-mCherry in presence of sensor inducer", "setting": "γ-secretase", "value": "ablated"}, {"measurement": "ICD driven activation of H2B-mCherry in presence of sensor inducer", "setting": "γ-secretase; listed as compound E", "value": "inhibited"}]}
{"compound": "C[C@H](NC(=O)Cc1cc(F)cc(F)c1)C(=O)N[C@H](C(=O)OC(C)(C)C)c1ccccc1", "note": "[DAPT]", "values": [{"measurement": "ICD driven activation of H2B-mCherry in presence of sensor inducer", "setting": "γ-secretase", "value": "inhibited; also recorded: ablated"}]}
{"compound": "DEEMEEC", "values": [{"measurement": "sensitivity of the sensor to antiviral drug, by intramolecular peptide", "setting": "[2]", "value": "high sensitivity"}]}
{"compound": "GELDELVYLLDGPGYDPIHS [CP5-46A-4D5E]", "values": [{"measurement": "sensitivity of the sensor to antiviral drug, by intramolecular peptide", "setting": "[2]", "value": "intermediate sensitivity"}]}
